The text below walks through data of patent US20050197350A1, “Novel quinoline, tetrahydroquinazoline, and pyrimidine derivatives and methods of treatment related to the use thereof” (TAISHO PHARMACEUTICAL CO., LTD., priority 2003, published 2005).

The test system of this experiment is MCH receptors. Briefly: MCH receptor activity class (method not given).
Where [1] appears, read: class by percent of control at 10^-7 M or IC50.
Setting [2] is: MCH receptor, class by percent of control at 10^-7 M or IC50.
[3] abbreviates: class 1-3 by percent of control at 10^-7 M or IC50.

“4-({[(cis-4-{[4-(dimethylamino)pyrimidin-2-yl]amino}-cyclohexyl)methyl]amino}methyl)-2,6-dimethoxyphenol [compound 1254]”: the class under setting [1] is 1 (Class 1: The value of percent of control at 10^−7 M was less than 40% or the value of IC50 was less than 50 nM.). Regarding `CCC(Oc1ccccc1)C(=O)N[C@H]1CC[C@@H](Nc2cc(N(C)C)c3ccccc3n2)CC1` (relative stereo) [compound 48, N-(cis-4-{[4-(dimethylamino)quinolin-2-yl]amino}cyclohexyl)-2-phenoxybutanamide], the class under setting [2] is 1 (Class 1: The value of percent of control at 10^−7 M was less than 40% or the value of IC50 was less than 50 nM.). Regarding `CC(Oc1ccccc1)C(=O)N[C@H]1CC[C@@H](Nc2cc(N(C)C)c3ccccc3n2)CC1` (relative stereo) [compound 49, N-(cis-4-{[4-(dimethylamino)quinolin-2-yl]amino}cyclohexyl)-2-phenoxypropanamide], the class under setting [2] was 1 (Class 1: The value of percent of control at 10^−7 M was less than 40% or the value of IC50 was less than 50 nM.). Turning to `CCC(C(=O)N[C@H]1CC[C@@H](Nc2cc(N(C)C)c3ccccc3n2)CC1)c1ccccc1` (relative stereo) [compound 66], the class under setting [2] is listed as 3 (Class 3 The value of percent of control at 10^−7 M was more than 60% or the value of IC50 was more than 200 nM.). `CC(=O)OC(C(=O)N[C@H]1CC[C@@H](Nc2cc(N(C)C)c3ccccc3n2)CC1)c1ccccc1` (relative stereo) [compound 92]: the class under setting [2] is reported as 3 (Class 3 The value of percent of control at 10^−7 M was more than 60% or the value of IC50 was more than 200 nM.). On to `CCC(Oc1ccccc1)C(=O)NC[C@H]1CC[C@@H](Nc2cc(N(C)C)c3ccccc3n2)CC1` (relative stereo) [compound 175, N-[(cis-4-{[4-(dimethylamino)quinolin-2-yl]amino}cyclohexyl)methyl]-2-phenoxybutanamide], for which the class under setting [2] is given as 3 (Class 3 The value of percent of control at 10^−7 M was more than 60% or the value of IC50 was more than 200 nM.).

Turning to `CC(Oc1ccccc1)C(=O)NC[C@H]1CC[C@@H](Nc2cc(N(C)C)c3ccccc3n2)CC1` (relative stereo) [compound 176, N-[(cis-4-{[4-(dimethylamino)quinolin-2-yl]amino}cyclohexyl)methyl]-2-phenoxypropanamide], the class under setting [2] is on record as 3 (Class 3 The value of percent of control at 10^−7 M was more than 60% or the value of IC50 was more than 200 nM.). As to `CCC(C(=O)NC[C@H]1CC[C@@H](Nc2cc(N(C)C)c3ccccc3n2)CC1)c1ccccc1` (relative stereo) [compound 193], the class under setting [2] was 3 (Class 3 The value of percent of control at 10^−7 M was more than 60% or the value of IC50 was more than 200 nM.). In the case of `CCC(Oc1ccccc1)C(=O)N[C@H]1CC[C@@H](Nc2nccc(N(C)C)n2)CC1` (relative stereo) [compound 266, N-(cis-4-{[4-(dimethylamino)pyrimidin-2-yl]amino}cyclohexyl)-2-phenoxybutanamide], the class under setting [1] was 2 (Class 2: The value of percent of control at 10^−7 M was from 40% to 60% or the value of IC′50 was from 50 nM to 200 nM.). For the compound `CC(Oc1ccccc1)C(=O)N[C@H]1CC[C@@H](Nc2nccc(N(C)C)n2)CC1` (relative stereo) [compound 267], the class under setting [1] is on record as 3 (Class 3 The value of percent of control at 10^−7 M was more than 60% or the value of IC50 was more than 200 nM.). In the case of `CCC(C(=O)N[C@H]1CC[C@@H](Nc2nccc(N(C)C)n2)CC1)c1ccccc1` (relative stereo) [compound 284], the class under setting [1] is given as 3 (Class 3 The value of percent of control at 10^−7 M was more than 60% or the value of IC50 was more than 200 nM.). As for `CC(=O)OC(C(=O)N[C@H]1CC[C@@H](Nc2nccc(N(C)C)n2)CC1)c1ccccc1` (relative stereo) [compound 310], under setting [1], the class is given as 3 (Class 3 The value of percent of control at 10^−7 M was more than 60% or the value of IC50 was more than 200 nM.). As to `CCC(Oc1ccccc1)C(=O)NC[C@H]1CC[C@@H](Nc2nccc(N(C)C)n2)CC1` (relative stereo) [compound 393, N-[(cis-4-{[4-(dimethylamino)pyrimidin-2-yl]amino}cyclohexyl)methyl]-2-phenoxybutanamide], under setting [1], the class is 2 (Class 2: The value of percent of control at 10^−7 M was from 40% to 60% or the value of IC′50 was from 50 nM to 200 nM.). Turning to `CC(Oc1ccccc1)C(=O)NC[C@H]1CC[C@@H](Nc2nccc(N(C)C)n2)CC1` (relative stereo) [compound 394], the class under setting [1] is on record as 3 (Class 3 The value of percent of control at 10^−7 M was more than 60% or the value of IC50 was more than 200 nM.). In the case of `CCC(C(=O)NC[C@H]1CC[C@@H](Nc2nccc(N(C)C)n2)CC1)c1ccccc1` (relative stereo) [compound 411, N-[(cis-4-{[4-(dimethylamino)pyrimidin-2-yl]amino}cyclohexyl)methyl]-2-phenylbutanamide], under setting [1], the class is 1 (Class 1: The value of percent of control at 10^−7 M was less than 40% or the value of IC50 was less than 50 nM.). As for `CCC(Oc1ccccc1)C(=O)N[C@H]1CC[C@@H](Nc2nc3c(c(N(C)C)n2)CCCC3)CC1` (relative stereo) [compound 484], under setting [3], the class is 1 (Class 1: The value of percent of control at 10^−7 M was less than 40% or the value of IC50 was less than 50 nM.). As for `CC(Oc1ccccc1)C(=O)N[C@H]1CC[C@@H](Nc2nc3c(c(N(C)C)n2)CCCC3)CC1` (relative stereo) [compound 485], the class under setting [3] is 1 (Class 1: The value of percent of control at 10^−7 M was less than 40% or the value of IC50 was less than 50 nM.). For `CCC(C(=O)N[C@H]1CC[C@@H](Nc2nc3c(c(N(C)C)n2)CCCC3)CC1)c1ccccc1` (relative stereo) [compound 502], under setting [3], the class is reported as 3 (Class 3 The value of percent of control at 10^−7 M was more than 60% or the value of IC50 was more than 200 nM.). As to `CC(=O)OC(C(=O)N[C@H]1CC[C@@H](Nc2nc3c(c(N(C)C)n2)CCCC3)CC1)c1ccccc1` (relative stereo) [compound 528], under setting [3], the class is recorded as 1 (Class 1: The value of percent of control at 10^−7 M was less than 40% or the value of IC50 was less than 50 nM.). Consider `CCC(Oc1ccccc1)C(=O)NC[C@H]1CC[C@@H](Nc2nc3c(c(N(C)C)n2)CCCC3)CC1` (relative stereo) [compound 610], for which, under setting [1], the class is listed as 3 (Class 3 The value of percent of control at 10^−7 M was more than 60% or the value of IC50 was more than 200 nM.). Regarding `CC(Oc1ccccc1)C(=O)NC[C@H]1CC[C@@H](Nc2nc3c(c(N(C)C)n2)CCCC3)CC1` (relative stereo) [compound 611], the class under setting [1] was 3 (Class 3 The value of percent of control at 10^−7 M was more than 60% or the value of IC50 was more than 200 nM.).

In the case of `CCC(C(=O)NC[C@H]1CC[C@@H](Nc2nc3c(c(N(C)C)n2)CCCC3)CC1)c1ccccc1` (relative stereo) [compound 628], under setting [1], the class is 3 (Class 3 The value of percent of control at 10^−7 M was more than 60% or the value of IC50 was more than 200 nM.). With `CN(C)c1cc(N[C@H]2CC[C@@H](NC(=O)C(Cc3ccccc3)c3ccccc3)CC2)nc2ccccc12` (relative stereo) [compound 678], the class under setting [1] was 3 (Class 3 The value of percent of control at 10^−7 M was more than 60% or the value of IC50 was more than 200 nM.). For the compound `CN(C)c1cc(N[C@H]2CC[C@@H](NC(=O)C3CC(=O)c4ccccc43)CC2)nc2ccccc12` (relative stereo) [compound 684], the class under setting [1] is given as 3 (Class 3 The value of percent of control at 10^−7 M was more than 60% or the value of IC50 was more than 200 nM.). On to `CN(C)c1cc(N[C@H]2CC[C@@H](NC(=O)[C@H](CCCCNC(=O)c3ccccc3)NC(=O)c3ccccc3)CC2)nc2ccccc12` (relative stereo) [compound 704], for which the class under setting [1] is 3 (Class 3 The value of percent of control at 10^−7 M was more than 60% or the value of IC50 was more than 200 nM.). `CC(C(=O)N[C@H]1CC[C@@H](Nc2cc(N(C)C)c3ccccc3n2)CC1)c1ccc(-c2ccccc2)c(F)c1` (relative stereo) [compound 708]: under setting [1], the class is 3 (Class 3 The value of percent of control at 10^−7 M was more than 60% or the value of IC50 was more than 200 nM.). Same read-out and setting: to `CC(C(=O)N[C@H]1CC[C@@H](Nc2cc(N(C)C)c3ccccc3n2)CC1)c1ccc(N2Cc3ccccc3C2=O)cc1` (relative stereo) [compound 710] belongs 3 (Class 3 The value of percent of control at 10^−7 M was more than 60% or the value of IC50 was more than 200 nM.); to `COc1ccc2c(c1)C(CC(=O)N[C@H]1CC[C@@H](Nc3cc(N(C)C)c4ccccc4n3)CC1)CC2=O` (relative stereo) [compound 713], 3 (Class 3 The value of percent of control at 10^−7 M was more than 60% or the value of IC50 was more than 200 nM.); to `CN(C)c1cc(N[C@H]2CC[C@@H](NC(=O)C(CC(=O)c3ccccc3)c3c[nH]c4ccccc34)CC2)nc2ccccc12` (relative stereo) [compound 716, N-(cis-4-{[4-(dimethylamino)quinolin-2-yl]amino}cyclohexyl)-2-(1H-indol-3-yl)-4-oxo-4-phenylbutanamide], 2 (Class 2: The value of percent of control at 10^−7 M was from 40% to 60% or the value of IC′50 was from 50 nM to 200 nM.). Turning to `CN(C)c1cc(N[C@H]2CC[C@@H](NC(=O)C(CC(=O)c3ccc(Br)cc3)c3c[nH]c4ccccc34)CC2)nc2ccccc12` (relative stereo) [compound 717], the class under setting [1] is 3 (Class 3 The value of percent of control at 10^−7 M was more than 60% or the value of IC50 was more than 200 nM.). `CCc1cccc2c(C(CC(=O)c3ccc(C(C)(C)C)cc3)C(=O)N[C@H]3CC[C@@H](Nc4cc(N(C)C)c5ccccc5n4)CC3)c[nH]c12` (relative stereo) [compound 720]: the class under setting [1] was 3 (Class 3 The value of percent of control at 10^−7 M was more than 60% or the value of IC50 was more than 200 nM.). `CN(C)c1cc(N[C@H]2CC[C@@H](NC(=O)C(CC(=O)c3ccc(C(C)(C)C)cc3)c3cn(C)c4ccccc34)CC2)nc2ccccc12` (relative stereo) [compound 721]: under setting [1], the class is given as 3 (Class 3 The value of percent of control at 10^−7 M was more than 60% or the value of IC50 was more than 200 nM.).
